This series can be described thus: Solubility of sensitizer in norbornadiene. The note with it: at room temperature.

These results are taken from US20040054244A1, “Process of quadricyclane production” (Exciton, Inc., priority 2000, published 2004).

Consider `CN(C)c1ccc(C(=O)c2ccc(N(C)C)cc2)cc1` [MK, 4,4′-bis (dimethylamino)-benzophenone], for which the solubility in norbornadiene was not above 0.32 % by weight.

For the molecule `CCN(CC)c1ccc(C(=O)c2ccc(N(CC)CC)cc2)cc1` [EMK, 4,4′-bis (diethylamino) benzophenone], the solubility in norbornadiene entry is listed as “at least 3.86 % by weight”.
